Results from patent US20230219942A1, “COMPOUNDS COMPRISING A THREE RING CORE AS PD-1/PD-L1 BLOCKERS” (RELIVE THERAPEUTICS INC., priority 2020, published 2023).
Read-outs that look alike come from different tables or passages of the source.

Molecular target: T1, PD-1/PD-L1 interaction (Homo sapiens, UniProt Q9NZQ7)
T1 construct: Tag1 or Tag2 (undisclosed kit tag); purchased Cisbio
Experiment: Cisbio PD-1/PD-L1 Homogeneous Time-Resolved Fluorescence (HTRF) binding assay
Settings: for IC50: read-out: Reported IC50
Description: The ability of compounds of the disclosure to inhibit the PD-1/PD-L1 interaction was investigated using a Cisbio PD-1/PD-L1 Homogeneous Time-Resolved Fluorescence (HTRF) binding assay (https://ca.cisbio.net/human-pd1-pd-l1-biochemical-binding-assay-44666).
With the assay, the interaction between PD-L1 and PD-1 is detected by using anti-Tag1 labeled with Europium (HTRF donor) and anti-Tag2 labeled with XL665 (HTRF acceptor). When the donor and acceptor antibodies are brought into close proximity due to PD-L1 and PD-1 binding, excitation of the donor antibody triggers fluorescence resonance energy transfer (FRET) towards the acceptor antibody, which in turn emits specifically at 665 nm. This specific signal is directly proportional to the extent of PD-1/PD-L1 interaction. Thus, a compound blocking the PD-1/PD-L1 interaction causes a reduction in the HTRF signal.
The assay was carried out in accordance with the product insert.

T1 sequence (Q9NZQ7 19-238 limits assumed): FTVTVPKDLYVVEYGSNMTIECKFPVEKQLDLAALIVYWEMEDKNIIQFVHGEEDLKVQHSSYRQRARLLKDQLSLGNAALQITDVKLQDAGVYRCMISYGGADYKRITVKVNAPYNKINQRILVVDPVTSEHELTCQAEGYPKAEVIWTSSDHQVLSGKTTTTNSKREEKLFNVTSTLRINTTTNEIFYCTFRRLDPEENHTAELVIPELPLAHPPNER

| IC50 (Table 8, Run: Pure) [µM] | IC50 (Table 9) [µM] | IC50 (Table 9, same result in μM) [µM] | SMILES | other results |
| --- | --- | --- | --- | --- |
|  |  |  | O=C(Cc1ccccc1)N1CCN(Cc2csc(NC[C@@H]3CCCN3Cc3ccc(Br)cc3)n2)CC1 [Compound 2463-262] | IC50 (Table 8, Run: Crude): 3.1 µM |
| 1.9 |  |  | O=C(CCc1nc2ccccc2[nH]1)N1CCN(Cc2csc(NC[C@@H]3CCCN3Cc3ccc(Br)cc3)n2)CC1 [Compound 2678-2] |  |
| 7 |  |  | O=C(CCc1nc2ccccc2[nH]1)N1CCN(Cc2csc(NC[C@@H]3CCCN3Cc3ccc(F)cc3)n2)CC1 [Compound 2678-3] |  |
| 9.2 |  |  | COc1ccc(CN2CCC[C@H]2CNc2nc(CN3CCN(C(=O)CCc4nc5ccccc5[nH]4)CC3)cs2)cc1OC [Compound 2678-5] |  |
| 0.33 | 0.051 | 0.051 | COc1cc(C(=O)N2CCN(Cc3csc(NC[C@@H]4CCCN4Cc4ccc(Br)cc4)n3)CC2)cc(OC)c1OC [Compound 2678-10] | KD/IC50 (Table 11, compound of the disclosure): 0.33 µM |
|  |  |  | CCCCCC(=O)N1CCN(Cc2csc(NC[C@@H]3CCCN3CCCc3nc4ccccc4[nH]3)n2)CC1 [Compound 2678-32] | IC50 (Table 8, Run: Pure (70% Pure)): 7.9 µM |
| 8.7 |  |  | Cc1cnc(C(=O)N2CCN(Cc3csc(NC[C@@H]4CCCN4Cc4ccc(F)cc4)n3)CC2)cn1 [Compound 2678-51] |  |
| 53 |  |  | COc1ccc(CN2CCC[C@H]2CNc2nc(CN3CCN(C(=O)c4cnc(C)cn4)CC3)cs2)cc1OC [Compound 2678-53] |  |
| 0.8 |  |  | CC(Oc1ccccc1)C(=O)N1CCN(Cc2csc(NC[C@@H]3CCCN3Cc3ccc(Br)cc3)n2)CC1 (some centres unmarked) [Compound 2678-58] |  |
| 0.87 |  |  | O=C(c1ccco1)N1CCN(Cc2csc(NC[C@@H]3CCCN3Cc3ccc(Br)cc3)n2)CC1 [Compound 2678-66] |  |
|  |  |  | O=C(c1ccco1)N1CCN(Cc2csc(NC[C@@H]3CCCN3CCCc3nc4ccccc4[nH]3)n2)CC1 [Compound 2678-72] | IC50 (Table 8, Run: Pure (70% Pure)): 11 µM |
| 1.6 |  |  | O=C(CCc1nc2ccccc2[nH]1)N1CCN(Cc2csc(NCC3CC(OCc4ccccc4)CN3Cc3ccc(Br)cc3)n2)CC1 (centres unmarked) [Compound 2678-78] |  |
| 0.5 |  |  | COc1cc(C(=O)N2CCN(Cc3csc(NCC4CC(OCc5ccccc5)CN4Cc4ccc(Br)cc4)n3)CC2)cc(OC)c1OC (centres unmarked) [Compound 2678-80] |  |
|  | 0.14 | 0.14 | COc1cc(C(=O)N2CCN(Cc3csc(NC[C@@H]4CCCN4Cc4ccc(C(F)(F)F)cc4)n3)CC2)cc(OC)c1OC [Compound A302] |  |
|  | 9.1 | 9.1 | COc1cc(C(=O)N2CCN(Cc3csc(NC[C@@H]4CCCN4Cc4ccc(C5CC5)cc4)n3)CC2)cc(OC)c1OC [Compound A303] |  |
|  | 3.5 | 3.5 | COc1cc(C(=O)N2CCN(Cc3csc(NC[C@@H]4CCCN4Cc4ccc(C)cc4)n3)CC2)cc(OC)c1OC [Compound A304] |  |
|  | 36 | 36 | COc1cc(C(=O)N2CCN(Cc3csc(NC[C@@H]4CCCN4Cc4cccc(Br)c4)n3)CC2)cc(OC)c1OC [Compound A305] |  |
|  | 40 | 40 | COc1cc(C(=O)N2CCN(Cc3csc(NC[C@@H]4CCCN4Cc4ccccc4Br)n3)CC2)cc(OC)c1OC [Compound A306] |  |
|  | 9.2 | 9.2 | COc1ccc(CN2CCC[C@H]2CNc2nc(CN3CCN(C(=O)c4cc(OC)c(OC)c(OC)c4)CC3)cs2)cc1 [Compound A307] |  |
|  | 0.69 | 0.69 | COc1cc(C(=O)N2CCN(Cc3csc(NC[C@@H]4CCCN4Cc4ccc(S(C)(=O)=O)cc4)n3)CC2)cc(OC)c1OC [Compound A308] |  |
|  | 10.4 | 10 | COc1cc(C(=O)N2CCN(Cc3csc(NC[C@@H]4CCCN4Cc4ccncc4)n3)CC2)cc(OC)c1OC [Compound A309] |  |
|  | 26 | 26 | COc1cc(C(=O)N2CCN(Cc3csc(NC[C@@H]4CCCN4Cc4cnc(C)s4)n3)CC2)cc(OC)c1OC [Compound A310] |  |
|  | > 50 | > 50 | COc1cc(C(=O)N2CCN(Cc3csc(NC[C@@H]4CCCN4Cc4nnc(C)s4)n3)CC2)cc(OC)c1OC [Compound A311] |  |
|  | > 50 | > 50 | COc1cc(C(=O)N2CCN(Cc3csc(NC[C@@H]4CCCN4Cc4ccncn4)n3)CC2)cc(OC)c1OC [Compound A312] |  |
